{
  "source": "patent US20070015815A1",
  "about": "“Hydrazide substrate shuts down protein biosynthesis capability in cells that host a metastatic or malignant disease mechanism” (priority 2003, published 2007)",
  "key": {"[1]": {"test_system": "tuberculosis organism", "settings": "Fox, 1952; cited from earlier work"}, "[2]": {"settings": "cited from earlier work"}, "[3]": {"test_system": "smallpox", "settings": "Thompson, about 1953; cited from earlier work"}, "[4]": {"test_system": "polio", "settings": "Thompson, about 1953; cited from earlier work"}, "[5]": {"settings": "1500 mg to 3000 mg daily; cited from earlier work"}, "[6]": {"test_system": "HIV", "assay_type": "in vivo, human"}, "[7]": {"test_system": "viral conjunctivitis", "assay": "viral conjunctivitis of the applicant", "assay_type": "in vivo, human", "settings": "single dose of about 100 mg"}, "[8]": {"test_system": "malignant melanoma", "assay": "malignant melanoma of the applicant", "assay_type": "in vivo, human", "settings": "about 100 mg daily for about three or four weeks", "description": "The MAOI hydrazide anticancer concept was reduced to practice by the applicant when an impromptu opportunity appeared after a decade old mole began to metastasize. The growth was about a half inch in diameter located in the center of the applicant's forehead, and had remained stable, symmetrical, and unchanged for years when it began to increase in size, shape, and having mixed pigmentation indicative of malignant melanoma. At such time the applicant began a treatment regimen based on Iproniazid Phosphate at about 100 mg daily for about three or four weeks when the perimeter of the growth began to separate from the skin surface underneath and itch. The applicant would unconsciously pick at the protruding edge as if picking at a scab which served to more quickly separate the neoplastic part at its perimeter where sections were peeled away."}, "[9]": {"test_system": "fetal cells", "assay_type": "in vivo", "settings": "offspring"}, "[10]": {"test_system": "influenza", "assay": "influenza of the applicant", "assay_type": "in vivo, human", "settings": "small dose", "description": "Such irreversible substrate concept has been postulated as an oxidase enzyme inhibitor which the applicant agrees is correct in context that such is a protease inhibitor and not an oxidase inhibitor. Such concept provides a hypothesis that logically explains all hydrazide biological prior art phenomena and can predict the prodrug type irreversible substrate action of any simple or low molecular weight hydrazide molecule. The irreversible substrate type protease inhibitor idea is also in agreement with the antidepressant drug explanation and working model, and the Malazide explanation and working model, and was predicted and illustrated by the mouse fetus experiment, and additionally concurs with the Marboran antiviral working model and explanation. […] And following a long period of time where no research was conducted due to family tragedies and related obstruction, the applicant returned to such work where the MAOI type hydrazide, Iproniazid, was then successfully used to target and shutdown protein biosynthesis in cells that hosted malignant disease mechanisms comprising various types of cancers and viral infections. […]"}, "[11]": {"test_system": "basal cell carcinoma", "assay": "basal cell carcinoma of the applicant", "assay_type": "in vivo, human", "settings": "during the melanoma treatment", "description": "A second more benign cancer growth coexisted at the same time while the melanoma treatment was ongoing which was of the basal cell carcinoma type which was not very noticeable, bothersome, or believed to be life threatening, but which also disappeared following the hydrazide melanoma treatment. The basal cell carcinoma was located below the left eye on the applicant's cheek which was characterized by a hard, gritty, cellular formation where scratching or rubbing the surface would dislodge some of the small hard cells which is a common characteristic of basal cell carcinoma. Although the condition was not apparent or at a life threatening stage at the time, and had never raised concerns or the idea of providing opportunity for Iproniazid screening as the melanoma cancer did, it was nevertheless inadvertently shutdown by Iproniazid and had likewise disappeared. Such successful use of Iproniazid as a cancer treatment method constitutes a new cancer treatment use for the MAOI hydrazide product."}, "[12]": {"test_system": "Kaposi's Sarcoma", "assay": "Kaposi's Sarcoma of the applicant", "set-up": "species or system human", "settings": "in vivo"}, "[13]": {"test_system": "bacterial gastroenteritis", "assay": "bacterial gastroenteritis of the applicant", "assay_type": "in vivo, human", "settings": "100 mg dose with warm tap water"}, "[14]": {"settings": "Public Health Service Pub. No.1589 (1967); cited from earlier work"}, "[15]": {"settings": "in vivo; cited from earlier work"}},
  "note": "Like-named read-outs stand apart in the source and are kept apart here.",
  "data": [
    {"compound": "NNC(=O)c1ccncc1", "note": "[Isoniazid, Isonicotinic acid hydrazide]", "values": [
      {"measurement": "tuberculostatic activity", "setting": "[1]", "value": "exceeded all other substances screened"},
      {"measurement": "fraction converted by metabolism to the hydrazide (acetyl) metabolite", "setting": "[2]; in vivo", "value": 50, "unit": "%"}
    ]},
    {"compound": "NN", "note": "[hydrazine]", "values": [
      {"measurement": "fraction converted by metabolism to the hydrazide (acetyl) metabolite", "setting": "[2]; Fox", "value": "about 50%"}
    ]},
    {"compound": "CN1C(=O)C(=NNC(N)=S)c2ccccc21", "note": "[Marboran, 1-Methylindole-2,3,-dione 3 thiosemicarbazone]", "values": [
      {"measurement": "antiviral action against smallpox", "setting": "[3]", "value": "effective"},
      {"measurement": "antiviral action against polio", "setting": "[4]", "value": "effective"},
      {"measurement": "side effects accompanying use", "setting": "[5]", "value": "nausea and vomiting"}
    ]},
    {"compound": "Iproniazid phosphate", "values": [
      {"measurement": "course after the single dose", "setting": "[6]; after several weeks", "value": "the virus begin to return"},
      {"measurement": "effect of initial single dose on HIV viral activity", "setting": "[6]; single dose of about 100 mg, applicant", "value": "shutdown the viral activity seemingly in total"},
      {"measurement": "effect on viral conjunctivitis", "setting": "[7]", "value": "disappearance of the inflamation of the conjunctiva"},
      {"measurement": "effect on malignant melanoma growth", "setting": "[8]", "value": "removed in total"}
    ]},
    {"compound": "CC(C)NNC(=O)c1ccncc1", "note": "[Iproniazid, Isonicotinic acid 2-isopropylhydrazide]", "values": [
      {"measurement": "outcome of fetal cell division and growth shutdown in pregnant mice", "setting": "[9]", "value": "birth of all healthy mice that matured normally to provide midget size adults"},
      {"measurement": "outcome after completed treatment study", "setting": "[6]; after planned research was completed", "value": "the virus was eradicated in total"},
      {"measurement": "effect on influenza", "setting": "[10]", "value": "very rapid recovery"},
      {"measurement": "effect on basal cell carcinoma", "setting": "[11]", "value": "disappeared"},
      {"measurement": "effect on Kaposi's Sarcoma", "setting": "[12]", "value": "inhibit and shutdown"},
      {"measurement": "time until all pain and griping had disappeared", "setting": "[13]", "value": "≤ 10", "unit": "min"},
      {"measurement": "time until most pain was gone", "setting": "[13]", "value": "≤ 5", "unit": "min"},
      {"measurement": "lethal dose for mice", "setting": "[14]", "value": 1760, "unit": "mg/kg"},
      {"measurement": "tuberculostatic activity", "setting": "[1]", "value": "did not appear to kill the tuberculosis organism"},
      {"measurement": "cytotoxic effects", "setting": "[15]", "value": "no cytotoxic effects"}
    ]}
  ]
}
